According to US20110144014A1, “CYTOKINE RECEPTOR MODULATORS AND USES THEREOF” (CENTRE HOSPITALIER UNIVERSITAIRE SAINTE-JUSTINE, priority 2005, published 2011):
Where a SMILES comes first, the peptide text is derived from it. [ ]: non-standard residue; d: D form.

How the values were obtained:
HEK293 cells = assay: Binding of I125-API-101.10 in HEK293 cells not containing IL-1R
Source text: Thymocytes freshly isolated from rat thymus were resuspended at a concentration of 10^7 cell/ml in PBS (phosphate buffered saline) buffer pH 8.0 (reaction buffer) and washed three times with ice-cold reaction buffer. The reaction mixture for each sample contained: 10^6 cells and 10^7 cpm of 125API-101.10. One sample also contained […] of cold API-101.10 peptide. In the negative control HEK-293 cells containing a negligible amount of IL-1R were used. Each sample volume was then raised to 250 μl with reaction buffer. Samples were incubated at room temperature and/or 37° for 45 minutes to allow peptide binding. The non-permeable cross-linker BS3 (Bis(sulfosuccinimidyl)suberate) was then added to a final concentration of 2.5 mM and samples were incubated at 4° C. for 30 minutes to minimize active internalization of BS3 (11.4 Å) (Pierce) (Partis, J. Prot. Chem. 293:263-277, 1983; Cox et al., J. Immunol. 145:1719-1726, 1990; and Knoller et al., J. Biol. Chem. 266:2795-2804, 1991). The reaction was quenched with 20 mM TRIS pH 7.5 for 15 minutes at room temperature. Cells were centrifuged at 4000 rpm for 10 minutes, lysed for 30 minutes on ice with 150 μl of RIPA buffer (50 mM Tris HCl pH7.4; 150 mM NaCl; 1 mM EDTA; 2 mM Na3VO4; 1 mM NaF; 1% NP-40; 0.25% Nadeoxycholate). […] Radioactivity was determined is every cell lysate with a Packard CobraII autogamma counter.

IL-1R/IL-1RacP = target: T1, IL-1R/IL-1RacP (Rattus norvegicus, UniProt Q02955+Q63621); assay: PGE2 levels in rat blood serum after IL-1β; type: in vivo; conditions: peptide injected directly in the stomach
T1 construct: 300 g Sprague-Dawley rats were anesthetized with isoflurane; from tissue; host or cells: whole animal (Sprague-Dawley rat)
T1 sequence (Q02955 20-576): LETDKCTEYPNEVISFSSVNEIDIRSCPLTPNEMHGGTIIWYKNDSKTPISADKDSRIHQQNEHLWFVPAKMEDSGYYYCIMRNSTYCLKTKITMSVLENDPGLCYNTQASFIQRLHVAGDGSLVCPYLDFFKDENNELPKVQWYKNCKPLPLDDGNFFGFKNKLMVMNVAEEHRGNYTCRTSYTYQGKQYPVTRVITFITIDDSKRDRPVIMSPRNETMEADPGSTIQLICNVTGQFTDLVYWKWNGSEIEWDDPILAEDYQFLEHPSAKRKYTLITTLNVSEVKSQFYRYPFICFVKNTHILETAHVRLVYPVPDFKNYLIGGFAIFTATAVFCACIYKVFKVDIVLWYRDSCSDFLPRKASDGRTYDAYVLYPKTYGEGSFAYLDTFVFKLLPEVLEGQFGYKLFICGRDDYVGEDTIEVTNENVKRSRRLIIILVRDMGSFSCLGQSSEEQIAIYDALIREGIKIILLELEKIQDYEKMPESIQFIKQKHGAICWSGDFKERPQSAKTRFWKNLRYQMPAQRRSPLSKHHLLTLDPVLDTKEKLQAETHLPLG
T1 sequence (Q63621 21-570): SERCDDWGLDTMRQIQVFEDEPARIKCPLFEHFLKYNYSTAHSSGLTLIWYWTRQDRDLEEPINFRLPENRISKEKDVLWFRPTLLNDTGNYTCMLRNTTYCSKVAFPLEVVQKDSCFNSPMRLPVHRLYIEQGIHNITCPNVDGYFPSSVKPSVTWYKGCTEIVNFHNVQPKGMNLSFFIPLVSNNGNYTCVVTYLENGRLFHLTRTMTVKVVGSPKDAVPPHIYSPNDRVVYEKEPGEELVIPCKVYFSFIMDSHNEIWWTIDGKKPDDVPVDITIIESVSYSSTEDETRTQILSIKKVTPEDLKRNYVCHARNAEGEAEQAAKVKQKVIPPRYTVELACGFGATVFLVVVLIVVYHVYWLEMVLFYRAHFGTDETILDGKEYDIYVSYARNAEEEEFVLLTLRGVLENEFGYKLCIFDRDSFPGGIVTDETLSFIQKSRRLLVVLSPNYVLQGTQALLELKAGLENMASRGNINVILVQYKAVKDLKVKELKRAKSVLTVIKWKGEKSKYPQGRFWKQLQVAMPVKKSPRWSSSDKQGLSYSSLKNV
Description: Another way of assessing the effect of cytokine receptor subfragments on IL-1R activity in vivo is by measuring PGE2 levels in rat blood serum. Rat blood samples were collected from in vivo experiments (e.g., protocol for IL-1 induced hypotension) and centrifuged at maximum speed for 15 minutes. The serum was then passed through a Waters purification column to isolate the lipidic part. Samples were evaporated and PGE2 quantities were determined with a radioimmuno assay (RIA) using a commercial kit (Cederlane).
The API-101 derivatives, API-101.10 (and others) were also tested to assess whether they could reverse the physiological actions of the natural ligand in vivo by injecting the derivative through the jugular or directly into the stomach (to verify the stability of the peptide through the digestive tract). Sprague-Dawley rats (300 g) were anesthetized with isoflurane (2.5-4%). The natural ligand (IL-1β) or vehicle (saline) was injected through the jugular vein (5 μg/kg). […] Arterial blood pressure and heart rate were continuously monitored (Gould) while temperature and blood gases (Radiometer) were measured for routine analysis as previously described (Li et al., Am. J. Physiol. 273:R1283-R1290, 1997; Hardy et al., Pediatr. Res. 46:375-382, 1999; Najarian et al., Circ. Res. 87:1149-1156, 2000). […]

## CC(C)C[C@@H](NC(=O)[C@@H](CCC(=O)O)NC(=O)[C@H](NC(=O)[C@H](NC(=O)[C@@H](Cc1ccc(O)cc1)NC(=O)[C@H](N)CCCNC(=N)N)[C@H](C)O)C(C)C)C(=O)N[C@H](C)C(N)=O [API-101.10, RYTVELA] (H-[dR][dY][dT][dV][dE][dL][dA]-NH2; N-terminus and C-terminus assumed)
HEK293 cells
  binding in cells not containing IL-1R: does not occur
IL-1R/IL-1RacP
  prevention of PGE2 synthesis in vivo: Higher inhibition
